Results as given in patent US20200030278A1, “PHARMACEUTICAL COMPOSITIONS OF METAP-2 INHIBITORS” (Zafgen, Inc., priority 2017, published 2020).
Values after ≈ are worked out from the molar mass of the structure shown. Where two headings read alike, the source gives them in different places.

Legend:
[1] = pKa (physicochemical properties)
[2] = Protein binding in mouse plasma (dialysis); format: in vitro ADME; conditions: read-out: % Bound (Mean) (converted)
[3] = Pharmacokinetics after subcutaneous administration in rats; format: in vivo; conditions: plasma; Rat, SC, 6 mg/kg
Experimental: (§1) Animal experiments were performed in accordance with the Guide for the Care and Use of Laboratory Animals as adopted and promulgated by the U.S. National Institutes of Health or local equivalent and were approved by the Institution's Animal Care and Use Committee or local equivalent. Unless described otherwise, animals (mouse, rat, and dog studies) were maintained under standard conditions (12-hour light/dark cycle and approximately 21±4° C. and 55±15% relative humidity), and food (Rodent pellet chow [Research Diets, Brunswick N.J., or similar] or canine pellet [Certified Dog Diet 2021C, Harlan Teklad Diets, Madison, Wis.] or canned [i.e., Cesar® Mars Petcare, Victoria, Australia]) and water were available ad libitum. Unless described otherwise, drug formulations were administered s.c. daily (efficacy studies) or every 3 days (Q3D; safety studies).
(§2) Assessment of differences in pharmacokinetics following subcutaneous administration reflect both differences in the pharmacokinetic properties of the compounds and differences in pharmaceutical factors that affect absorption of the formulations from the injection sites.

[4] = logD7.4 (physicochemical properties); conditions: pH 7.4
[5] = Pharmacokinetics after intravenous infusion in humans; format: in vivo; conditions: Human, 30-minute IV Infusion, 2.0 mg (0.9 mg/m^2)
[6] = Protein binding in human plasma (dialysis); format: in vitro ADME; conditions: Human Plasma, 120 nM; read-out: % Bound (Mean) (converted)
[7] = Solubility (pH 7); format: physicochemical; conditions: pH 7, aqueous buffer
[8] = Pharmacokinetics after subcutaneous administration in humans; format: in vivo, Human; conditions: Human, SC, 2 mg
From the text: as §2

[9] = Hepatocyte incubation, metabolic profile, dog; format: in vitro ADME
[10] = Pharmacokinetics after subcutaneous administration in dogs; format: in vivo; conditions: beagle, plasma, Dog, SC, 0.6 mg/kg
Experimental: as §1, §2

[11] = Pharmacokinetics after intravenous administration in rats; conditions: in vivo, Rat, IV Bolus, 3 mg/kg
Experimental: as §1

[12] = Duration of plasma exposure after subcutaneous dosing, summary over species; format: in vivo, rat, dog, rabbit, human
[13] = Pharmacokinetics after intravenous administration in dogs; conditions: in vivo, Dog, IV Bolus, 0.142 mg/kg
Experimental: as §1

[14] = Pharmacokinetic study in dogs, single s.c. injection (Example 3); conditions: both, beagle, dog, plasma, sc, 0.6 mg/kg
Experimental: Male and female beagle dogs of 9 to 11 months of age for PK characterization were individually housed at the testing facility Approximately 325 g of pelleted food was provided daily. […] Animals were observed twice daily for signs of ill health, morbidity, mortality, injury, and viability, and detailed clinical observations were conducted daily (including urine/fecal examination and hands-on examination). Food was weighed daily, and body weights were recorded at least weekly.
Samples were collected in tubes containing lithium heparin and processed for plasma by centrifugation (10 minutes at 3000 rpm). Supernatant was removed and stored frozen (−70° C.) until processed (BASi, West Lafayette, Ind.). Plasma drug concentration data were used to calculate PK parameters for individual concentration data using noncompartmental PK methods in Watson™ version 7.3.0.01 (Thermo Fisher Scientific, Inc., Waltham, Mass.).

[15] = Hepatocyte incubation, metabolic profile, human; format: in vitro ADME
[16] = Protein binding in rat plasma (dialysis); format: in vitro ADME; conditions: Rat Plasma, read-out: % Bound (Mean) (converted)
[17] = Hepatocyte incubation, metabolic profile, rat; format: in vitro ADME
[18] = Protein binding in dog plasma (dialysis); format: in vitro ADME; conditions: Dog Plasma, read-out: % Bound (Mean) (converted)
[19] = Toxicology study in the rat, s.c. Q3D for 28 days; format: in vivo, Sprague Dawley rats; conditions: for NOAEL at 28 days / Cmax / AUC(0-t): Sprague Dawley, rat, in vivo, sc; for NOAEL at 28 days / Mortality/early euthanasia: s.c. Q3D, 4 weeks; for AUC(0-t): read-out: AUC0-t at NOAEL; for Mortality/early euthanasia: rats
Experimental: Male and female Sprague Dawley rats 9-10 weeks of age (Envigo RMS, Inc., Indianapolis, Ind. or Orient Bio Inc., Gyeonggi-do, South Korea) were individually housed at the testing facility. […] Animals were allocated to treatment groups based on body weight, and body weight and food consumption were recorded weekly. […] At necropsy, macroscopic pathologic findings were recorded, sperm motility and morphology were determined, selected organs were weighed, and selected tissues were collected for microscopic examination.

[20] = Pharmacokinetics after subcutaneous administration in rabbits; format: in vivo, Rabbit
From the text: as §2

[21] = female, 2 mg/kg, Day 1, female rats, NOAEL 2 mg/kg
[22] = female, 2 mg/kg, Day 31, female rats, NOAEL 2 mg/kg
[23] = male, 0.6 mg/kg, Day 1, male rats, NOAEL 0.6 mg/kg
[24] = male, 0.6 mg/kg, Day 31, male rats, NOAEL 0.6 mg/kg

In the case of CO[C@@H]1[C@H](OC(=O)/C=C/c2ccc(OCCN(C)C)cc2)CC[C@]2(CO2)[C@H]1[C@@]1(C)O[C@@H]1CC=C(C)C [beloranib, reference compound], the pKa [1] is reported as 9.4, the fraction unbound at 60 nM ([2]; 60 nM) is reported as 0.0181 and the fraction unbound at 120 nM ([2]; 120 nM) is reported as 0.0191. The fraction unbound at 240 nM ([2]; 240 nM) was 0.0259, the fraction unbound at 480 nM ([2]; 480 nM) was 0.0222 and the fraction unbound at 1000 nM ([2]; 1000 nM) was 0.0212. The fraction unbound ([2]; All concentrations) was 0.0213, the AUC(0-t) [3] was 412 ng·h/mL and the Cmax [3] was 270 ng/mL. It also gave a Tmax [3] of 0.5 h, a half-life [3] of 1.8 h and a logD7.4 [4] of 2.72. The kel [5] was 0.120 ± 0.070 h⁻¹, the AUC(0-inf) ([5]; in vivo) was 5.82 ± 2.46 ng·h/mL and the clearance ([5]; in vivo) was 64.5 mL/min/kg. It also gave a half-life ([5]; in vivo) of 7.06 ± 2.66 h, a Vd ([5]; in vivo, read-out: Vdss) of 25.4 ± 19.2 L/kg and a fraction unbound at 120 nM [6] of 0.0544. It also gave a solubility [7] of 300 µg/mL (≈ 600 µM), a kel [8] of 0.0885 ± 0.0266 h⁻¹ and an AUC(0-inf) ([8]; plasma) of 5.44 ± 1.81 ng·h/mL. The half-life ([8]; plasma) was 8.44 ± 2.49 h, the Cmax ([8]; plasma, read-out: Cmax) was 1 ± 1.1 ng/mL and the Tmax ([8]; plasma, read-out: Tmax) was 1.58 ± 1.28 h. The “metabolic profile / predominant pathway in hepatocytes” value [9] was “glutathione (GSH) conjugation pathways being predominant”, the AUC(0-t) [10] was 182 ± 73 ng·h/mL and the Cmax [10] was 16.6 ± 12.3 ng/mL. The Tmax [10] was 3.5 ± 1 h, the half-life ([10]; N = 1) was 7.84 h and the clearance [11] was 113 mL/min/kg. The half-life [11] was 1.05 ± 0.23 h, the Vd ([11]; read-out: Vdss) was 5.08 ± 0.29 L/kg and the “interval between doses with plasma concentrations at background / minimal exposure” value ([12]; dosing once every 3 days in animals and twice a week in humans) was “approximately 48 hours”. The “plasma concentration at 24 hours after dosing” value ([12]; subcutaneous, rat, dog, and human) was “quantifiable”, the clearance [13] was 33.3 mL/min/kg and the half-life [13] was 2.9 ± 0.29 h. For the same compound, the Vd ([13]; read-out: Vdss) was 5.07 ± 0.23 L/kg, the half-life [14] was 9.3 h and the “metabolic profile / predominant pathway in hepatocytes” value [15] was “glutathione (GSH) conjugation pathways being predominant”. It also gave a fraction unbound at 60 nM ([16]; 60 nM) of 0.0285, a fraction unbound at 120 nM ([16]; 120 nM) of 0.055 and a fraction unbound at 240 nM ([16]; 240 nM) of 0.0415. It also gave a fraction unbound at 480 nM ([16]; 480 nM) of 0.0326, a fraction unbound at 1000 nM ([16]; 1000 nM) of 0.0434 and a fraction unbound ([16]; All concentrations) of 0.0402. For the same compound, the “metabolic profile / predominant pathway in hepatocytes” value [17] was “glutathione (GSH) conjugation pathways being predominant”, the fraction unbound at 480 nM ([18]; 480 nM) was 0.045 and the fraction unbound at 1000 nM ([18]; 1000 nM) was 0.059. It also gave an NOAEL at 28 days ([19]; female rats, read-out: NOAEL (F)) of 2 mg/kg, an NOAEL at 28 days ([19]; male rats, read-out: NOAEL) of 0.6 mg/kg and a Cmax [19, 21] of 28.5 ng/mL. For the same compound, the AUC(0-t) [19, 21] was 96.9 ng·h/mL, the Cmax [19, 22] was 19.2 ng/mL and the AUC(0-t) [19, 22] was 56.7 ng·h/mL. The Cmax [19, 23] was 19.2 ng/mL, the AUC(0-t) [19, 23] was 36.8 ng·h/mL and the Cmax [19, 24] was 8.17 ng/mL. The AUC(0-t) [19, 24] was 29 ng·h/mL, the Mortality/early euthanasia [19] was “mortality was noted by Days 16-24” and the Mortality/early euthanasia ([19]; listed as Beloranib) was 4/15 males in the 6 mg/kg dose. It also gave an AUC(0-t) ([20]; plasma, Rabbit, SC, 1 mg/kg) of 222 ± 9 ng·h/mL, a Cmax ([20]; plasma, Rabbit, SC, 1 mg/kg) of 52 ± 4.1 ng/mL and a Tmax ([20]; plasma, Rabbit, SC, 1 mg/kg) of 1.7 ± 0.6 h. The half-life ([20]; plasma, Rabbit, SC, 1 mg/kg) was 1.7 ± 0.3 h and the “plasma concentration at 8 hours after dosing” value ([20]; rabbit, subcutaneous) was “still quantifiable”.
